Reference: patent publication US20140243302A1, “BRIDGED BICYCLIC COMPOUNDS FOR THE TREATMENT OF BACTERIAL INFECTIONS” (priority 2011, published 2014)
Structures can show the parent of a compound that is named as a salt.

Tested on: Staphylococcus aureus Smith
Experiment: MIC assay, modified agar dilution (CLSI), S. aureus Smith
Format: cell-based
Settings: agar dilution, 35° C., 16-20 hr, lowest concentration that completely inhibited growth; for MIC: Staphylococcus aureus, read-out: S_aureus_Smith_WT_MIC
Protocol: The potency of antibacterial agents was measured using the Minimal Inhibitory Concentration (MIC) assay. The assay measures the ability of test agents to inhibit the growth of bacteria on agar-containing medium.
The bacterial test strains used were exemplified by Staphylococcus aureus Smith, Enterococcus faecium A2373, Streptococcus pneumoniae IID554, and Escherichia coli ATCC 25922. All strains were maintained as frozen stocks held at −80° C. in skim milk. Other bacterial test strains are well known to those skilled in the art and can be used for testing.
Mueller Hinton Agar (MHA BBL; Becton Dickinson and Company, Sparks, Md.) was used as the medium. MHA was supplemented with 5% defibrinated horse blood (DHB; Nippon Biotest Laboratories inc.) to support the growth of S. pneumoniae and E. faecium.
MIC values were determined using a modified agar dilution procedure described by the Clinical and Laboratory Standards Institute (CLSI; Methods for Dilution Antimicrobial Susceptibility Tests for Bacteria That Grow Aerobically; Approved Standard—Eighth Edition. CLSI document M07-A8 [ISBN 1-56238-689-1]. Clinical and Laboratory Standards Institute, 940 West Valley Road, Suite 1400, Wayne, Pa. 19087-1898 USA, 2009).
Stock solutions (6.4 mgmL) of test compounds were prepared in 100% ultrapure dimethyl sulfoxide (DMSO; source) on the day of the assay. Subsequent serial dilutions were performed to generate solutions with concentrations ranging from 6.4 to 0.0002 mgmL in 100% DMSO.
Agar medium containing test compound was prepared by adding the dilutions of antimicrobial solution to molten MHA at a temperature of 45-50° C. The agar and antimicrobial solution were mixed thoroughly, poured into petri dishes, and allowed to solidify at room temperature. The final concentration of test compounds in the MHA medium ranged from 128 to 0.001 μg/mL with two-fold dilutions. MHA plates lacking antibacterial compound were used for growth controls.
Prior to susceptibility testing, the bacterial isolates were removed from frozen storage, thawed at room temperature, sub-cultured to MHA medium and incubated overnight at 35° C. S. pneumoniae and E. faecium were subcultured on MHA supplemented with 5% DHB at 35° C. with […]. Colonies from each plate were suspended in normal saline. This suspension was adjusted to the turbidity of a 0.5 McFarland standard, 1-2×10^8 colony forming units (CFU) per mL, and diluted 100-fold to 1-2×10^6 CFUmL.
Suspensions of bacterial cultures were applied to the surface of MHA plates containing test compound as well as to a growth control plate lacking test compound using an inoculum-replicating device with 4 mm pins. The replicating device applied 5 uL of the bacterial suspension such that each spot contained approx. 1×10^4 CFU. Plates were dried for about 40 min and incubated at 35° C. for 16-20 hr prior to scoring.

Structure (SMILES) | S_aureus_Smith_WT_MIC [µg/mL] | S_aureus_Smith_WT_MIC (Hydrochloride) [µg/mL] | further results
COc1ccc2ncc(Cl)c(C(O)CC34CCC(NCc5ccc6c(n5)NC(=O)CO6)(CC3)CC4)c2n1 (single isomer, unassigned) [Example 13a, 6-((4-(2-(3-Chloro-6-methoxy-1,5-naphthyridin-4-yl)-2-hydroxyethyl)bicyclo[2.2.2]octan-1-ylamino)methyl)-2H-pyrido[3,2-b][1,4]oxazin-3(4H)-one] | 0.0310 |  | 
COc1ccc2ncc(Cl)c(C(O)CC34CCC(NCc5ccc6c(n5)NC(=O)CO6)(CC3)CC4)c2n1 (single isomer, unassigned) [Example 13b, 6-((4-(2-(3-Chloro-6-methoxy-1,5-naphthyridin-4-yl)-2-hydroxyethyl)bicyclo[2.2.2]octan-1-ylamino)methyl)-2H-pyrido[3,2-b][1,4]oxazin-3(4H)-one] | 0.0630 |  | 
COc1ccc2ncc(Cl)c(CC(O)C34CCC(NCc5ccc6c(n5)NC(=O)CO6)(CC3)CC4)c2n1.Cl (single isomer, unassigned) [Example 14a, 6-((4-(2-(3-Chloro-6-methoxy-1,5-naphthyridin-4-yl)-1-hydroxyethyl)bicyclo[2.2.2]octan-1-ylamino)methyl)-2H-pyrido[3,2-b][1,4]oxazin-3(4H)-one Hydrochloride] |  |  | MIC: 0.031 µg/mL
COc1ccc2ncc(Cl)c(CC(O)C34CCC(NCc5ccc6c(n5)NC(=O)CO6)(CC3)CC4)c2n1.Cl (single isomer, unassigned) [Example 14b, 6-((4-(2-(3-Chloro-6-methoxy-1,5-naphthyridin-4-yl)-1-hydroxyethyl)bicyclo[2.2.2]octan-1-ylamino)methyl)-2H-pyrido[3,2-b][1,4]oxazin-3(4H)-one Hydrochloride] | 0.0310 |  | 
COc1ccc2ncc(F)c(CC(O)C34CCC(NCc5ccc6c(n5)NC(=O)CO6)(CC3)CO4)c2n1.Cl (single isomer, unassigned) [Example 20b, 6-((1-(2-(3-Fluoro-6-methoxy-1,5-naphthyridin-4-yl)-1-hydroxyethyl)-2-oxabicyclo[2.2.2]octan-4-ylamino)methyl)-2H-pyrido[3,2-b][1,4]oxazin-3(4H)-one Hydrochloride] | 0.0630 |  | 
COc1ccc2ncc(F)c(CC(N)C34CCC(NCc5ccc6c(n5)NC(=O)CO6)(CC3)CO4)c2n1 (single isomer, unassigned) [Example 21a, 6-((1-(1-Amino-2-(3-fluoro-6-methoxy-1,5-naphthyridin-4-yl)ethyl)-2-oxabicyclo[2.2.2]octan-4-ylamino)methyl)-2H-pyrido[3,2-b][1,4]oxazin-3(4H)-one Dihydrochloride] |  |  | MIC: 0.25 µg/mL
COc1ccc2ncc(F)c(CC(N)C34CCC(NCc5ccc6c(n5)NC(=O)CO6)(CC3)CO4)c2n1 (single isomer, unassigned) [Example 21b, 6-((1-(1-Amino-2-(3-fluoro-6-methoxy-1,5-naphthyridin-4-yl)ethyl)-2-oxabicyclo[2.2.2]octan-4-ylamino)methyl)-2H-pyrido[3,2-b][1,4]oxazin-3(4H)-one Dihydrochloride] |  |  | S_aureus_Smith_WT_MIC (Dihydrochloride): 0.125 µg/mL
COc1ccc2ncc(F)c(C(O)C(O)C34CCC(NCc5ccc6c(n5)NC(=O)CO6)(CC3)CO4)c2n1.Cl (single isomer, unassigned) [Example 26a, 6-((1-(2-(3-Fluoro-6-methoxy-1,5-naphthyridin-4-yl)-1,2-dihydroxyethyl)-2-oxabicyclo[2.2.2]octan-4-ylamino)methyl)-2H-pyrido[3,2-b][1,4]oxazin-3(4H)-one Hydrochloride] |  | 0.250 | 
COc1ccc2ncc(F)c(C(O)C(O)C34CCC(NCc5ccc6c(n5)NC(=O)CO6)(CC3)CO4)c2n1.Cl (single isomer, unassigned) [Example 26b, 6-((1-(2-(3-Fluoro-6-methoxy-1,5-naphthyridin-4-yl)-1,2-dihydroxyethyl)-2-oxabicyclo[2.2.2]octan-4-ylamino)methyl)-2H-pyrido[3,2-b][1,4]oxazin-3(4H)-one Hydrochloride] |  | 1.00 | 
COc1ccc2ncc(F)c(C3OC(=O)OC3C34CCC(NCc5ccc6c(n5)NC(=O)CO6)(CC3)CO4)c2n1.Cl (single isomer, unassigned) [Example 27a, 6-((1-(5-(3-Fluoro-6-methoxy-1,5-naphthyridin-4-yl)-2-oxo-1,3-dioxolan-4-yl)-2-oxabicyclo[2.2.2]octan-4-ylamino)methyl)-2H-pyrido[3,2-b][1,4]oxazin-3(4H)-one Hydrochloride] |  | 0.250 | 
COc1ccc2ncc(F)c(C3OC(=O)OC3C34CCC(NCc5ccc6c(n5)NC(=O)CO6)(CC3)CO4)c2n1.Cl (single isomer, unassigned) [Example 27b, 6-((1-(5-(3-fluoro-6-methoxy-1,5-naphthyridin-4-yl)-2-oxo-1,3-dioxolan-4-yl)-2-oxabicyclo[2.2.2]octan-4-ylamino)methyl)-2H-pyrido[3,2-b][1,4]oxazin-3(4H)-one hydrochloride] |  | 2.00 | 
COc1ccc2ncc(=O)n(CC(O)C34CCC(NCc5ccc6c(n5)NC(=O)CO6)(CC3)CO4)c2n1.Cl (single isomer, unassigned) [Example 51a, 6-(((1-(1-Hydroxy-2-(6-methoxy-3-oxopyrido[2,3-b]pyrazin-4(3H)-yl)ethyl)-2-oxabicyclo[2.2.2]octan-4-yl)amino)methyl)-2H-pyrido[3,2-b][1,4]oxazin-3(4H)-one Hydrochloride] |  | 0.0310 | 
COc1ccc2ncc(=O)n(CC(O)C34CCC(NCc5ccc6c(n5)NC(=O)CO6)(CC3)CO4)c2n1.Cl (single isomer, unassigned) [Example 51b, 6-(((1-(1-hydroxy-2-(6-methoxy-3-oxopyrido[2,3-b]pyrazin-4(3H)-yl)ethyl)-2-oxabicyclo[2.2.2]octan-4-yl)amino)methyl)-2H-pyrido[3,2-b][1,4]oxazin-3(4H)-one hydrochloride] |  | 0.0630 | 
COc1ccc2ccc(=O)n(CC(O)C34CCC(NCc5ccc6c(n5)NC(=O)CO6)(CC3)CO4)c2n1 (single isomer, unassigned) [Example 52a, 6-(((1-(1-Hydroxy-2-(7-methoxy-2-oxo-1,8-naphthyridin-1(2H)-yl)ethyl)-2-oxabicyclo[2.2.2]octan-4-yl)amino)methyl)-2H-pyrido[3,2-b][1,4]oxazin-3(4H)-one] | 0.0310 |  | 
COc1ccc2ccc(=O)n(CC(O)C34CCC(NCc5ccc6c(n5)NC(=O)CO6)(CC3)CO4)c2n1 (single isomer, unassigned) [Example 52b, 6-(((1-(1-Hydroxy-2-(7-methoxy-2-oxo-1,8-naphthyridin-1(2H)-yl)ethyl)-2-oxabicyclo[2.2.2]octan-4-yl)amino)methyl)-2H-pyrido[3,2-b][1,4]oxazin-3(4H)-one] | 0.0630 |  | 
COc1cnc2ccc(=O)n(CC(O)C34CCC(NCc5ccc6c(n5)NC(=O)CO6)(CC3)CO4)c2c1 (single isomer, unassigned) [Example 54a, 6-(((1-(1-Hydroxy-2-(7-methoxy-2-oxo-1,5-naphthyridin-1(2H)-yl)ethyl)-2-oxabicyclo[2.2.2]octan-4-yl)amino)methyl)-2H-pyrido[3,2-b][1,4]oxazin-3(4H)-one] | 0.250 |  | 
